Results as given in BindingDB's records for doi:10.1002/cbic.201600513 (University of Florida, 2017).

Experiments:
Carbonic anhydrase 2 = Carbonic anhydrase 2 (Homo sapiens, UniProt P00918); test: CA Inhibition Assay
Excerpt: (§1) CA-catalyzed CO2 hydration activity methods were published previously by Cornelio et al. as part of a larger series of benzenesulfonamide-based inhibitors with aryl substitutions in the para position of the benzene ring.

Carbonic anhydrase 12 = Carbonic anhydrase 12 (Homo sapiens, UniProt O43570); test: CA Inhibition Assay
Excerpt: as §1

Carbonic anhydrase 12, sequence (O43570 whole entry): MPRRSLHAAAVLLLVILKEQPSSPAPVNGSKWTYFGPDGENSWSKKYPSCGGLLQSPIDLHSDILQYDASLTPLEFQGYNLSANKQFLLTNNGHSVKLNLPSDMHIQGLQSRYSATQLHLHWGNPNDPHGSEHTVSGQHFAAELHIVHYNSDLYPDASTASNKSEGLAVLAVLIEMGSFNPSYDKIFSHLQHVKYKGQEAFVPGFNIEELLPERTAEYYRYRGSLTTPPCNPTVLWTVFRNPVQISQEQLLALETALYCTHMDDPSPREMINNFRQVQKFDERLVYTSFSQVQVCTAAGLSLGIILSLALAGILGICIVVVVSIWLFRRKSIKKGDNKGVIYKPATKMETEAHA

Row | Compound | Ki (Carbonic anhydrase 2) | Ki (Carbonic anhydrase 12)
1 | NS(=O)(=O)c1ccc(-c2ccccc2)cc1 [4-(phenyl)-bezenesulfonamide (4a)] | 0.8 nM | 
2 | NS(=O)(=O)c1ccc(-c2cccc(C=O)c2)cc1 [4-(3-formylphenyl)-benzenesulfonamide (4e)] | 2 nM | 0.6 nM
